In patent publication US20050209278A1, “Piperidinyl- and piperazinyl-sulfonylmethyl hydroxamic acids and their use as protease inhibitors” (priority 2002, published 2005) one finds Ki data, which are given here for 66 compounds.

As a reminder, the Ki is a dissociation constant, usually derived from enzyme kinetics or from competition with a known ligand.

The assay has as its target T1, MMP-1 (Homo sapiens, UniProt P03956).
T1 construct: made in house; host or cells: MMP-1-transfected HT-1080 cells (spent media)
T1 sequence (P03956 100-469): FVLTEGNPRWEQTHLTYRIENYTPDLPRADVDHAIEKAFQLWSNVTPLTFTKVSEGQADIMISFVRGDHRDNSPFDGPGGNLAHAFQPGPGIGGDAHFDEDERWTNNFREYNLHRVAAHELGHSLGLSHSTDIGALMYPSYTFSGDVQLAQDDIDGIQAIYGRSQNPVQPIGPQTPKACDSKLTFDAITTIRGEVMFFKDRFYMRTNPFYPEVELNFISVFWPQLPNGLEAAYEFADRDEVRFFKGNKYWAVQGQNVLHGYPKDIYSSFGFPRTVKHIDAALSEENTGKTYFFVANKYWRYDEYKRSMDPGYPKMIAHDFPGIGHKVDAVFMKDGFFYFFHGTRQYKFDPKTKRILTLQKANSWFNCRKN
The assay can be described thus: In vitro MMP inhibition, Ki determination (fluorogenic substrate II). In kind it is biochemical. As to conditions: value not in parenthesis; read-out: MMP-1 Ki.
With `COc1ccc(-c2ccc(N3CCN(S(=O)(=O)C4(C(=O)NO)CCOCC4)CC3)nc2)cc1` [Example 61], the Ki was 0.493 µM. As for `O=C(NO)C1(S(=O)(=O)N2CCN(c3ccc(OC(F)(F)C(F)F)cc3)CC2)CCSCC1` [Example 62], the figure is 2.31 µM. The figure for `CCCCOc1ccc(N2CCN(S(=O)(=O)C3(C(=O)NO)CC3)CC2)cc1` [Example 63] is over 10 µM. The figure for `CCCCOc1ccc(N2CCN(S(=O)(=O)C3(C(=O)NO)CCN(c4ccc(OC(F)(F)C(F)F)cc4)CC3)CC2)cc1` [Example 65] is over 10 µM; for `O=C(NO)C1(S(=O)(=O)N2CCN(c3ccc4c(c3)OC(F)(F)C(F)(F)O4)CC2)CCOCC1` [Example 67] it is over 10 µM; for `O=C(NO)C1(S(=O)(=O)N2CCN(c3ccc(COCC(F)(F)C(F)(F)F)cc3)CC2)CCOCC1` [Example 70] it is over 10 µM. `CCCCOc1ccc(N2CCN(S(=O)(=O)C3(C(=O)NO)CCN(C(=O)c4ccco4)CC3)CC2)cc1` [Example 156]: the Ki was over 10 µM.

As to `CCCCOc1ccc(N2CCN(S(=O)(=O)C3(C(=O)NO)CCN(c4nccs4)CC3)CC2)cc1` [Example 157], the Ki is over 10 µM. As for `CCCCOc1ccc(N2CCN(S(=O)(=O)C3(C(=O)NO)CCN(c4ncccn4)CC3)CC2)cc1` [Example 159], the figure is over 10 µM. As for `CCCCOc1ccc(N2CCN(S(=O)(=O)C3(C(=O)NO)CCN(C(=O)c4cccs4)CC3)CC2)cc1` [Example 160], the figure is over 10 µM; as for `Cc1ccc(N2CCC(C(=O)NO)(S(=O)(=O)N3CCN(c4ccc(OCCCC(F)(F)F)cc4)CC3)CC2)cc1` [Example 161], over 10 µM.

As for `O=C(NO)C1(S(=O)(=O)N2CCN(c3ccc(OCCN4CCCC4)cc3)CC2)CCOCC1` [Example 162], the Ki was over 10 µM.

With `CCCCOc1ccc(N2CCN(S(=O)(=O)C3(C(=O)NO)CCN(CCOC)CC3)CC2)cn1` [Example 164], the Ki was over 10 µM. As for `CCCCOc1c(F)cc(N2CCN(S(=O)(=O)C3(C(=O)NO)CCN(CCOC)CC3)CC2)cc1F` [Example 165], the figure is over 10 µM; as for `COCCN1CCC(C(=O)NO)(S(=O)(=O)N2CCN(c3ccc(OCC(C)C)c(F)c3)CC2)CC1` [Example 166], over 10 µM. As for `CCCCCc1ccc(N2CCN(S(=O)(=O)C3(C(=O)NO)CCOCC3)CC2)nc1` [Example 167], the figure is 6.22 µM. Take `O=C(NO)C1(S(=O)(=O)N2CCN(c3ccccn3)CC2)CCOCC1` [Example 169]: the Ki amounted to 0.45 µM.

For `O=C(NO)C1(S(=O)(=O)N2CCN(c3ccc(SC(F)(F)F)cc3)CC2)CCOCC1` [Example 170], the Ki worked out at 7.81 µM. As for `CCCc1ccc(N2CCN(S(=O)(=O)C3(C(=O)NO)CCN(c4ccc(C)cc4)CC3)CC2)cc1` [Example 171], the figure is over 10 µM; as for `CCCCc1ccc(N2CCN(S(=O)(=O)C3(C(=O)NO)CCN(CCOC)CC3)CC2)cc1F` [Example 173], over 10 µM; as for `COCCN1CCC(C(=O)NO)(S(=O)(=O)N2CCN(c3ccc(C(C)=O)cc3)CC2)CC1` [Example 174], 4.65 µM. The figure for `CCCNC(=O)c1ccc(N2CCN(S(=O)(=O)C3(C(=O)NO)CCN(CCOC)CC3)CC2)cc1` [Example 175] is over 10 µM. `COCCN1CCC(C(=O)NO)(S(=O)(=O)N2CCN(c3ccccn3)CC2)CC1` [Example 176]: the Ki came out at 1.46 µM. As for `CCCCC(=O)c1ccc(N2CCN(S(=O)(=O)C3(C(=O)NO)CCN(CCOC)CC3)CC2)cc1` [Example 177], the figure is 7.36 µM. As for `CCCc1cnc(N2CCN(S(=O)(=O)C3(C(=O)NO)CCN(CCOC)CC3)CC2)nc1` [Example 178], the figure is over 10 µM. The figure for `CCCC(C)Cc1ccc(N2CCN(S(=O)(=O)C3(C(=O)NO)CCN(CCOC)CC3)CC2)cc1` (stereo not drawn) [Example 189] is over 10 µM; for `CCC(C)Cc1ccc(N2CCN(S(=O)(=O)C3(C(=O)NO)CCN(CCOC)CC3)CC2)cc1` (stereo not drawn) [Example 190] it is over 10 µM; for `COCCN1CCC(C(=O)NO)(S(=O)(=O)N2CCN(c3ccc(CCCCC(C)C)cc3)CC2)CC1` [Example 191] it is over 10 µM.

For the compound `COCCN1CCC(C(=O)NO)(S(=O)(=O)N2CCN(c3ccc(CC(C)C)cc3)CC2)CC1` [Example 192], the Ki was over 10 µM. The figure for `CCc1ccc(N2CCN(S(=O)(=O)C3(C(=O)NO)CCN(CCOC)CC3)CC2)cc1` [Example 193] is 7.18 µM; for `COCCN1CCC(C(=O)NO)(S(=O)(=O)N2CCN(c3ccc(C)cc3)CC2)CC1` [Example 194] it is 7.73 µM.

Take `COCCN1CCC(C(=O)NO)(S(=O)(=O)N2CCN(c3ccccc3)CC2)CC1` [Example 195]: the Ki is 2.98 µM.

For `COCCN1CCC(C(=O)NO)(S(=O)(=O)N2CCN(c3nc4ccccc4o3)CC2)CC1` [Example 196], the Ki was over 10 µM.

As for `CCCCCc1ccc(N2CCN(S(=O)(=O)C3(C(=O)NO)CCOCC3)CC2)nn1` [Example 197], the Ki was over 10 µM. The figure for `O=C(NO)C1(S(=O)(=O)N2CCN(c3ccc(Cl)nn3)CC2)CCOCC1` [Example 198] is 8.65 µM. As for `CCCCCCc1ccc(N2CCN(S(=O)(=O)C3(C(=O)NO)CCN(CCOC)CC3)CC2)cc1` [Example 199], the Ki was over 10 µM. As for `CCCc1ccc(N2CCN(S(=O)(=O)C3(C(=O)NO)CCN(CCOC)CC3)CC2)cc1` [Example 200], the figure is over 10 µM. Take `COCCN1CCC(C(=O)NO)(S(=O)(=O)N2CCN(c3ccc(Br)cc3)CC2)CC1` [Example 201]: the inhibition constant (Ki) is 2.73 µM. Turning to `COCCN1CCC(C(=O)NO)(S(=O)(=O)N2CCN(c3ccc(OC(F)(F)F)cc3)CC2)CC1` [Example 202], the Ki stood at 7.52 µM. Consider `O=C(NO)C1(S(=O)(=O)N2CCN(c3ccc(OC(F)(F)F)cc3)CC2)CCN(C2CC2)CC1` [Example 203], for which the Ki turned out to be 7.36 µM. As for `CCCCCc1ccc(N2CCN(S(=O)(=O)C3(C(=O)NO)CCN(S(N)(=O)=O)CC3)CC2)cc1` [Example 205], the figure is over 10 µM.

As to `CCCCCc1ccc(N2CCN(S(=O)(=O)C3(C(=O)NO)CCN(C(=O)CC)CC3)CC2)cc1` [Example 206], the Ki is over 10 µM. `Cc1ccc(-c2ccc(N3CCN(S(=O)(=O)C4(C(=O)NO)CCOCC4)CC3)cc2)cc1` [Example 207]: the Ki was determined as 3.25 µM.

`O=C(NO)C1(S(=O)(=O)N2CCN(c3ccc(-c4ccc(F)cc4)cc3)CC2)CCOCC1` [Example 208]: the Ki came to 1.73 µM.

As to `O=C(NO)C1(S(=O)(=O)N2CCN(c3cnc(CCCC(F)(F)F)cn3)CC2)CCOCC1` [Example 209], the Ki was over 10 µM. As for `O=C(NO)C1(S(=O)(=O)N2CCN(c3cnc(CCC(F)(F)C(F)(F)F)cn3)CC2)CCOCC1` [Example 210], the figure is over 10 µM; as for `O=C(NO)C1(S(=O)(=O)N2CCN(c3ccc(OCC(F)(F)C(F)(F)F)cc3)CC2)CCOCC1` [Example 212], 9.81 µM; as for `CC(C)Cc1ccc(N2CCN(S(=O)(=O)C3(C(=O)NO)CCOCC3)CC2)c(F)c1` [Example 213], over 10 µM. As for `CCCCc1nnc(N2CCN(S(=O)(=O)C3(C(=O)NO)CCOCC3)CC2)s1` [Example 214], the Ki is over 10 µM. In the case of `O=C(NO)C1(S(=O)(=O)N2CCN(c3nncs3)CC2)CCOCC1` [Example 215], the Ki is over 10 µM. As for `CCCc1nnc(N2CCN(S(=O)(=O)C3(C(=O)NO)CCOCC3)CC2)s1` [Example 216], the figure is over 10 µM; as for `CCCCc1ccc(N2CCN(S(=O)(=O)C(C)C(=O)NO)CC2)nc1` (stereo not drawn) [Example 217], over 10 µM.

With `O=C(NO)C1(S(=O)(=O)N2CCN(c3cnc(CCC(F)(F)F)cn3)CC2)CCOCC1` [Example 218], the Ki is over 10 µM. In the case of `CCCCCc1cnc(N2CCN(S(=O)(=O)C3(C(=O)NO)CCOCC3)CC2)cn1` [Example 219], the Ki was over 10 µM. As to `CCCCOc1ccc(N2CCN(S(=O)(=O)C3(C(=O)NO)CCN(c4ccc5c(c4)OCO5)CC3)CC2)cc1` [Example 221], the Ki was over 10 µM.

For `CCCCOc1ccc(N2CCN(S(=O)(=O)C3(C(=O)NO)CCS(=O)(=O)CC3)CC2)cc1` [Example 222], the Ki was over 10 µM. As for `CCCCOc1ccc(N2CCN(S(=O)(=O)C3(C(=O)NO)CCN(c4ccsc4)CC3)CC2)cc1` [Example 223], the figure is over 10 µM. As for `CCCCOc1ccc(N2CCN(S(=O)(=O)C3(C(=O)NO)CCN(c4ccc(C#N)cc4)CC3)CC2)cc1` [Example 225], the figure is over 10 µM; as for `CCCCOc1ccc(N2CCN(S(=O)(=O)C3(C(=O)NO)CCN(c4cccc(C)c4)CC3)CC2)cc1` [Example 226], over 10 µM.

As for `COCCSc1ccc(N2CCN(S(=O)(=O)C3(C(=O)NO)CCOCC3)CC2)cc1` [Example 227], the Ki amounted to 9.28 µM.

Regarding `CCCCOc1ccc(N2CCN(S(=O)(=O)C3(C(=O)NO)CCN(c4ccc(OC)c(OC)c4)CC3)CC2)cc1` [Example 229], the Ki was over 10 µM. `CCCCOc1ccc(N2CCN(S(=O)(=O)C3(C(=O)NO)CCN(C(=O)N4CCN(C)CC4)CC3)CC2)cc1` [Example 230]: the Ki was over 10 µM. As for `CCCCOc1ccc(N2CCN(S(=O)(=O)C3(C(=O)NO)CCN(C(=O)N4CCCC4)CC3)CC2)cc1` [Example 231], the Ki was over 10 µM. As for `CCCCOc1ccc(N2CCN(S(=O)(=O)C3(C(=O)NO)CCSCC3)CC2)cc1` [Example 232], the figure is over 10 µM.

For the compound `CCCCOc1ccc(N2CCN(S(=O)(=O)C3(C(=O)NO)CCN(CCN4CCOCC4)CC3)CC2)cc1` [Example 233], the Ki was over 10 µM. As for `CCOCCSc1ccc(N2CCN(S(=O)(=O)C3(C(=O)NO)CCOCC3)CC2)cc1` [Example 234], the figure is over 10 µM.
